Assay results published in US20100267827A1, “PHENYL-PRENYL-ETHER DERIVATIVES FOR THE TREATMENT OF COGNITIVE, NEURODEGENERATIVE OR NEURONAL DISEASES OR DISORDERS” (NOSCIRA, S.A., priority 2006, published 2010).

What was measured:
[1] = molecular target: recombinant human glycogen synthase kinase 3 beta (Homo sapiens, UniProt P49841); assay: GSK-3 beta inhibition assay; assay type: biochemical; conditions: 0.5 h, percentage of enzyme activity remaining; for remaining activity at 25 µM: 25 μM compound; for remaining activity at 50 µM: 50 μM compound
Chain of recombinant human glycogen synthase kinase 3 beta (P49841 whole entry): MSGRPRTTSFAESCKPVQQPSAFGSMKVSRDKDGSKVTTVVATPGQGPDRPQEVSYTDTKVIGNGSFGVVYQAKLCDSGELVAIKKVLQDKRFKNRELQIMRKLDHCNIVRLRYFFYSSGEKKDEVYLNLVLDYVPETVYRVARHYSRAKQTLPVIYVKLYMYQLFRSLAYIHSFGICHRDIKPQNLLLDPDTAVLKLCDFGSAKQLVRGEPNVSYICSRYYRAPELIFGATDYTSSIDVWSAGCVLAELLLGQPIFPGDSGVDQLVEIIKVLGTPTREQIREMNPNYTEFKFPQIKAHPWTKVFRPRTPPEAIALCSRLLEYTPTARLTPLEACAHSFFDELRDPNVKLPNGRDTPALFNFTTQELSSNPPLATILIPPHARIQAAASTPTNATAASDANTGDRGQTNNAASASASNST
Procedure: The GSK-3 beta activity of the compounds of formula (I) according to the present invention was determined by incubation of a mixture of recombinant human GSK-3 enzyme, a phosphate source and GSK-3 substrate in the presence and in the absence of the corresponding test compound, and by measuring the GSK-3 activity of this mixture. The compounds where tested at final concentrations of 25 and 50 μM.
Recombinant human glycogen synthase kinase 3 beta was assayed in MOPS 11 mM, pH 7.4, EDTA 0.2 mM, EGTA 1.25 mM, MgCl2 26.25 mM and sodium orthovanadate 0.25 mM in the presence of 62.5 μM of Phospho-Glycogen Synthase Peptide-2 (GS-2), 0.5 μCi gamma-^33P-ATP and unlabelled ATP at a final concentration of 12.5 μM. The final assay volume was 20 μl. After incubation for 30 minutes at 30° C., 15 μl aliquots were spotted onto P81 phosphocellulose papers. Filters were washed four times for at least 10 minutes each and counted with 1.5 ml of scintillation cocktail in a scintillation counter.
(§1) The compounds of formula (I) of the present invention where submitted to the above indicated assays, in order to determine both their GSK-3 inhibition activity and BACE activity inhibition. The results are indicated in Table I, in percentage of the respective enzyme activity.

[2] = molecular target: T1, rhBACE-1 β-Secretase recombinant human (Homo sapiens, UniProt P56817); assay: BACE assay (FRET); assay type: biochemical; conditions: percentage of enzyme activity remaining
T1 construct: purchased R&D Systems 931-AS
T1 sequence (P56817 46-457 limits assumed): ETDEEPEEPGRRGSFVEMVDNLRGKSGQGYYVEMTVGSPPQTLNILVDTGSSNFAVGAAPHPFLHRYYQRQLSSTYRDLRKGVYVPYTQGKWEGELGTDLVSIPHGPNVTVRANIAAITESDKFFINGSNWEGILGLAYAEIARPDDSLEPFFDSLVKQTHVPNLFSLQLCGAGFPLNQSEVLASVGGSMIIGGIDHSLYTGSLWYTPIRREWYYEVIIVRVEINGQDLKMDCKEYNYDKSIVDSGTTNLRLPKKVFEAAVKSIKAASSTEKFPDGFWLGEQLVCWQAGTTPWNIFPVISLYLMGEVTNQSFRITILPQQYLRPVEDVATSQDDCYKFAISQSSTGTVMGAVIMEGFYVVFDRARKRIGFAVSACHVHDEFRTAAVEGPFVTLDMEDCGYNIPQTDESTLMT
Description: The aim of this assay is to determine if a compound, either synthetic or of marine origin, is a BACE-1 inhibitor, to avoid the formation of Aβ. This assay is based on FRET technology (Fluorescence Resonance Energy Transfer). FRET is used to measure cleavage of a peptide substrate, among other uses. […] When a substrate peptide cleavage occurs, the energy balance is broken and all the donor fluorescence can be observed. The increase in fluorescence is linearly related to the rate of proteolysis (Gordon, G W et al., 1998). In this assay the reaction occurs between an enzyme, purified BACE-1, and a fluorogenic peptidic substrate who present the “Swedish mutation”. The peptide cleavage by BACE-1 produces fluorescence energy and enzymatic activity can be quantified.
The reagents which are used in this assay are the following:
rhBACE-1 β-Secretase recombinant human (R&D Systems. Ref. 931-AS).
Fluorogenic Peptide Substrate IV (R&D Systems. Ref. ES004).
Beta-SECRETASE INHIBITOR H-4848. (BACHEM. Ref. H-4848.0001).
The assay is carried out in a 96 wells microplate. The final concentration of substrate is 3.5 μM per well, and the enzyme concentration is 0.5 μg/ml. The final volume of the assay is 100 μl per well and all reagents are diluted in Reaction Buffer. The compounds are tested at a concentration of 10^−5 and 10^−6 M. The control in the assay is the commercial inhibitor R-Secretase inhibitor H-4848 from BACHEM, which is tested at 300 nM. All the samples and controls are studied by duplicate.
The plate is mixed gently and changes in the fluorescence are measured using a fluorimeter plate reader, with 320 nm excitation filter and 405 nm emission filter. The temperature should be preferably maintained between 25 and 30° C. Measurements are carried out every ten minutes during an hour. The first measure is subtracted from the last to calculate the fluorescence increase, evaluating the enzymatic activity. The 100% activity is calculated as the mean of the results of wells without sample or inhibitor.
In the cases where abnormal effects in fluorescence were detected, BACE inhibition activity was assayed using BACE-1 (beta-Secretase) FRET ASSAY KIT (Invitrogen, Ref. P2985). Fluorescence was measured with a fluorimeter plate reader, with 544 nm excitation filter and 580 nm emission filter.
as §1

remaining activity at 25 µM [1] [%]	remaining activity at 50 µM [1] [%]	% of BACE activity ([2]; 1 μM compound) [%]	% of BACE activity ([2]; 10 μM compound) [%]	SMILES
90.8	95.7	100	89 ± 6	CC(C)=CCC/C(C)=C/COc1cc(C(=O)O)ccc1O [Compound 28]
48.3	7.61	100	50 ± 16	CCOC(=O)c1ccc(O)c(OC/C=C(\C)CCC=C(C)C)c1 [Compound 27]
74.4	40	2 ± 4.5	0	COC(=O)c1ccc(NC(C)=O)c(OC/C=C(\C)CC/C=C(\C)CCC=C(C)C)c1 [Compound 20]
53	18.6	61 ± 133	0	COCOC(=O)c1ccc(OC)c(OC/C=C(\C)CCC=C(C)C)c1 [Compound 23, 3-(3,7-Dimethyl-octa-2,6-dienyloxy)-4-methoxy-benzoic acid methoxymethyl ester]
90	57.5	68.5 ± 0.7	29 ± 10	CC(=O)Nc1ccc(C(=O)O)cc1OC/C=C(\C)CC/C=C(\C)CCC=C(C)C [Compound 21, 4-Acetylamino-3-(3,7,11-trimethyl-dodeca-2,6,10-trienyloxy)-benzoic acid]
–	85.1	3.5 ± 5	0	COC(=O)c1ccc(NC(C)=O)c(OC/C=C(\C)CCC=C(C)C)c1 [Compound 19, 4-Acetylamino-3-(3,7-dimethyl-octa-2,6-dienyloxy)-benzoic acid methyl ester]
54.6	7.36	49 ± 5	0	COc1ccc(C(=O)OCC=C(C)C)cc1OC/C=C(\C)CCC=C(C)C [Compound 13]
12.4	4.55	30 ± 7	26 ± 13	CC(C)=CCC/C(C)=C/CC/C(C)=C/COc1ccc(C(=O)O)cc1OC/C=C(\C)CC/C=C(\C)CCC=C(C)C [Compound 24, 3,4-Bis-(3,7,11-trimethyl-dodeca-2,6,10-trienyloxy)-benzoic acid]
90.4	65.5	100	79 ± 13	CC(C)=CCC/C(C)=C/CC/C(C)=C/COc1cc(C(=O)O)ccc1N [Compound 17, 4-Amino-3-(3,7,11-trimethyl-dodeca-2,6,10-trienyloxy)-benzoic acid]

Further lines, the compound ahead of its results:

SMILES	remaining activity at 25 µM [1] [%]	remaining activity at 50 µM [1] [%]	% of BACE activity ([2]; 1 μM compound) [%]	% of BACE activity ([2]; 10 μM compound) [%]
COC(=O)c1ccc(N)c(OC/C=C(\C)CC/C=C(\C)CCC=C(C)C)c1 [Compound 9, 4-Amino-3-(3,7,11-trimethyl-dodeca-2,6,10-trienyloxy)-benzoic acid methyl ester]	91.7	59.5	100	80 ± 13
COc1ccc(C(=O)OC/C=C(\C)CCC=C(C)C)cc1OC/C=C(\C)CCC=C(C)C [Compound 11, 3-(3,7-Dimethyl-octa-2,6-dienyloxy)-4-methoxy-benzoic acid 3,7-dimethyl-octa-2,6-dienyl ester]	84.8	58.2	48 ± 2	8 ± 3
COC(=O)c1ccc(N)c(OC/C=C(\C)CCC=C(C)C)c1 [Compound 8, 4-Amino-3-(3,7-dimethyl-octa-2,6-dienyloxy)-benzoic acid methyl ester]	85.6	71	100	81 ± 8
COC(=O)c1cccc(OC/C=C(\C)CCC=C(C)C)c1 [Compound 5]	94.4	80.7	13.3	0
COC(=O)c1ccc(OC)c(OC/C=C(\C)CCC=C(C)C)c1C/C=C(\C)CCC=C(C)C [Compound 10]	56	19.5	86.5 ± 5	82 ± 10
CC(C)=CCC/C(C)=C/COc1cccc(C(=O)O)c1 [Compound 6]	70.3	80	87.5 ± 17	36.5 ± 38
COC(=O)c1ccc(OC)c(OC/C=C(\C)CCC=C(C)C)c1 [Compound 2, 3-(3,7-Dimethyl-octa-2,6-dienyloxy)-4-methoxy-benzoic acid methyl ester]	88.1	68	100	18.5 ± 12.1
COc1ccc(C(=O)NC/C=C(\C)CCC=C(C)C)cc1OC/C=C(\C)CCC=C(C)C [Compound 12, N-(3,7-Dimethyl-octa-2,6-dienyl)-3-(3,7-dimethyl-octa-2,6-dienyloxy)-4-methoxy-benzamide]	47.5	27.9	99 ± 7	42 ± 18
